The nature of the data set: Reactive metabolite identification (glutathione adducts). In kind it is in vitro ADME, human. To be noted: for % GSH-adduct (+NADPH, +GSH) relative to parent (−NADPH, −GSH): human liver microsomes, 30 μM, 60 min. The procedure: Reactive Metabolite Identification
In vitro determination of reactive metabolite formation for small molecules by detection of glutathione adducts formed in vitro in incubations with human liver microsomes fortified with NADPH and glutathione.
Methods: The metabolism of small molecules (30 μM) for glutathione adduct formation was assessed in incubations (200 μL volume, […], 60 min incubation time) with liver microsomes from human (1 mg/mL protein) conducted in potassium phosphate buffer (0.1 M, pH 7.4) for 1 h at 37° C. in a 96-well plate (2 mL well volume) and were performed in the absence of NADPH (used as a negative control) and in the presence of NADPH (1 mM) and glutathione (GSH, 10 mM). Incubations with liver microsomes were performed in a shaking water bath incubator with slow horizontal shaking (30 rpm). To obtain 30 μM incubation concentration of a compound, a 3 mM substrate stock solution in DMSO was used. Final incubation mixtures contained 148 μL of potassium phosphate buffer, 10 μL of liver microsome solution (20 mg protein/mL), 2 μL of the 3 mM substrate solution and where incubations were initiated by the addition of 40 μL of NADPH solution (5 mM dissolved in potassium phosphate buffer). Non-NADPH containing incubations were supplemented with 40 μL of potassium phosphate buffer. Post-incubation, reactions were terminated by adding an equal volume of acetonitrile containing 20 nM carbamazepine internal standard and 3% formic acid. Quenched samples then were centrifuged (4,600 rpm, 4° C., 10-min) after which the supernatants were transferred to a 96-well LC-MS sample analysis plate and diluted with one volume equivalent of HPLC-grade water, and then heat sealed with aluminum foil prior to analysis by liquid chromatography/mass spectrometry (LC-MS/MS).
Analyte identification: The LC-MS/MS detection (with in-line UV detection at 280 nm) of test compounds and potential GSH-adducts was focused on extracting selected ion chromatographic profiles using the protonated molecular ion MH^+ m/z for parent to 4 decimal places, and corresponding protonated molecular ions of predicted GSH-adduct metabolites (m/z MH^+ parent+305.0681 amu) using Xcalibur software (version 2.1.0, Thermo Fisher Scientific, Waltham, MA). Relative GSH-adduct abundance in vitro in liver microsome extracts was assessed using the LC/UV absorbance at 280 nm peak area ratio obtained by using Xcalibur software (version 2.1.0) between the detected GSH-adducts from NADPH- and GSH-fortified incubation extracts and the corresponding LC/UV peak area of the parent compound from minus NADPH containing incubation extracts. The extent of GSH-adduct formation was determined by LC-MS/MS analysis with in-line LC-UV detection at 280 nm by dividing the glutathione-adduct LC/UV peak area by the LC/UV peak area of the corresponding parent HCM-1 NG analog determined from analysis of control (-NAPDH, -GSH) incubations extracts.
Materials: Pooled male human (HLM, 50 donors) liver microsomes were obtained from Bioreclamation IVT (Baltimore, MD). Glutathione (GSH) and NADPH were purchased from Sigma Chemical Co. (St. Louis, MO). All solvents used for liquid chromatography-tandem mass spectrometry (LC-MS/MS) analyses were of chromatographic grade.
LC-MS Conditions: Extracts from incubations with liver microsomes and hepatocytes were characterized by LC-MS and LC-MS/MS on a Thermo Electron LTQ Orbitrap XL mass spectrometer coupled with a Dionex UltiMate 3000 UHPLC containing in-line diode array detection and an OAS-3300TXRS Autosampler (40 μL injection volume). Electrospray ionization (ESI) was employed in the positive ion mode with the needle potential held at 5.01 kV, a sheath flow rate of 35.02, aux flow rate of 9.99, a current of 2.6 uA, a capillary temperature of 325° C., and a capillary voltage of 15.99. Vacuum conditions used were an ion gauge pressure used was 2.33×10^−5 Torr and a convection gauge pressure of 0.90 Torr. […]

Structures are written as SMILES.

Regarding `O=c1[nH]c2c(c(=O)n1C1CCOCC1)CC(F)(F)[C@H](c1cccc(F)c1)N2` [Compound C-1, (S)-6,6-difluoro-7-(3-fluorophenyl)-3-(tetrahydro-2H-pyran-4-yl)-5,6,7,8-tetrahydropyrido[2,3-d]pyrimidine-2,4(1H,3H)-dione, reference compound], the “% GSH-adduct (+NADPH, +GSH) relative to parent (−NADPH, −GSH)” value is “Not Detected”.
In the case of `Cc1ccc(F)c([C@@H]2Nc3[nH]c(=O)n(C4CCOCC4)c(=O)c3C[C@@H]2F)c1` [Compound 3, (6S,7S)-6-fluoro-7-(2-fluoro-5-methylphenyl)-3-(tetrahydro-2H-pyran-4-yl)-5,6,7,8-tetrahydropyrido[2,3-d]pyrimidine-2, 4 (1H, 3H)-dione], the “% GSH-adduct (+NADPH, +GSH) relative to parent (−NADPH, −GSH)” value was “Not Detected”. Also, the “Glutathione Adduct Detection in Human Liver Microsome Incubations (single measurement)” value (single measurement) is on record as “Not Detected”. Also, the “Glutathione Adduct Detection in Human Liver Microsome Incubations, Average (triple measurements)” value (triple measurements) is listed as “Not Detected”.

The values above are taken from US20250282779A1, “SUBSTITUTED 5,6,7,8-TETRAHYDROPYRIDO[2,3-D]PYRIMIDINE-2,4-DIONES FOR TREATING CARDIAC DISEASES” (MYOKARDIA, INC., priority 2018, published 2025).
